For 36 compounds, IC50 results are on record in patent publication US9458110B2, “Phenylpyrazole derivatives as potent ROCK1 and ROCK2 inhibitors” (BRISTOL-MYERS SQUIBB COMPANY, priority 2013, dated 2016).

The target in one assay is ROCK1 (Homo sapiens (Human), UniProt Q13464). The assay is described as follows: ROCK assay (Caliper LABCHIP peptide phosphorylation), ROCK1.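 Further: Read-out is separation of phosphorylated from unphosphorylated peptide, with kinase activity inhibition computed at every concentration of a dose-response series.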 The note with it: 5 μM ATP, 1.5 μM peptide substrate. Format: biochemical.
Another assay deals with ROCK2 (Homo sapiens (Human), UniProt O75116). The assay is described as follows: ROCK assay (Caliper LABCHIP peptide phosphorylation), ROCK2.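 Further: reaction stopped with EDTA, then phosphorylated and unphosphorylated peptide resolved by microfluidic electrophoresis, kinase inhibition computed at each compound concentration in dose-response series, DMSO under 2%.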 Format: biochemical. Conditions: 5 μM ATP, 1.5 μM peptide substrate.

SMILES strings stand for the structures. pIC50: −log10 of the molar value.

ROCK1, sequence (Q13464 whole entry, species assumed): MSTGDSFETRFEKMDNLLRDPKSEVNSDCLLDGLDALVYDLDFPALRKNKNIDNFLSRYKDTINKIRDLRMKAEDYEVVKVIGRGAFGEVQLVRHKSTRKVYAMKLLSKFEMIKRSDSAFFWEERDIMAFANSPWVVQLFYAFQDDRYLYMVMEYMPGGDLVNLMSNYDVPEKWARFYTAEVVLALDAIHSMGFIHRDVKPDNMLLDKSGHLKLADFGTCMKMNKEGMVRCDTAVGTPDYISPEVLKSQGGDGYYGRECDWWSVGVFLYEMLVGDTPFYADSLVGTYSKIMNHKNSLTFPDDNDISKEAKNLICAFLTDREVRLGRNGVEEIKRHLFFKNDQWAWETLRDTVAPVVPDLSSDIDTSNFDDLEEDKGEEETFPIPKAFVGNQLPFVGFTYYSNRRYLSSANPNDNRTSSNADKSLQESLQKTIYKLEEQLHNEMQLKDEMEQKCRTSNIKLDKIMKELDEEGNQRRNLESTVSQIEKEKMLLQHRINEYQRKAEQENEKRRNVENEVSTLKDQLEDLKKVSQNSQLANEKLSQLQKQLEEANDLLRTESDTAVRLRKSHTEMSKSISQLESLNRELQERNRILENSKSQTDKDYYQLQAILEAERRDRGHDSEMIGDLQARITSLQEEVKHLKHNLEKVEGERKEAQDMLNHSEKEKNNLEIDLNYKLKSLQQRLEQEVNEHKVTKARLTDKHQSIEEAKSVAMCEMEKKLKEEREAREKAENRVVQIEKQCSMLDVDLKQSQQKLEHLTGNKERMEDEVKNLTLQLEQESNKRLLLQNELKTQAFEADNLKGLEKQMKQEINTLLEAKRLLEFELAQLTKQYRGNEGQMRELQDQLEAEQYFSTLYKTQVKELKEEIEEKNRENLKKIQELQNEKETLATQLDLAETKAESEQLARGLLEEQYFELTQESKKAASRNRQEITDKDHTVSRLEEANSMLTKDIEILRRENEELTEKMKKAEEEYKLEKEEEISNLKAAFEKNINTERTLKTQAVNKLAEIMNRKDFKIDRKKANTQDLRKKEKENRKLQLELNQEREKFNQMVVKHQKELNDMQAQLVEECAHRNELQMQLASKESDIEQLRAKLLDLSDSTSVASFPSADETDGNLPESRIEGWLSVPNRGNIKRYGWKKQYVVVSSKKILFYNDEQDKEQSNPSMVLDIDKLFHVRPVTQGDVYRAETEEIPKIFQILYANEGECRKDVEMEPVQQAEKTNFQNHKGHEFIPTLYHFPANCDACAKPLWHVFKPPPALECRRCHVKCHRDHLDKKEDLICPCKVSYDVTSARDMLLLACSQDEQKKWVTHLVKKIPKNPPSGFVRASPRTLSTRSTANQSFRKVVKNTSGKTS
ROCK2, sequence (O75116 whole entry, species assumed): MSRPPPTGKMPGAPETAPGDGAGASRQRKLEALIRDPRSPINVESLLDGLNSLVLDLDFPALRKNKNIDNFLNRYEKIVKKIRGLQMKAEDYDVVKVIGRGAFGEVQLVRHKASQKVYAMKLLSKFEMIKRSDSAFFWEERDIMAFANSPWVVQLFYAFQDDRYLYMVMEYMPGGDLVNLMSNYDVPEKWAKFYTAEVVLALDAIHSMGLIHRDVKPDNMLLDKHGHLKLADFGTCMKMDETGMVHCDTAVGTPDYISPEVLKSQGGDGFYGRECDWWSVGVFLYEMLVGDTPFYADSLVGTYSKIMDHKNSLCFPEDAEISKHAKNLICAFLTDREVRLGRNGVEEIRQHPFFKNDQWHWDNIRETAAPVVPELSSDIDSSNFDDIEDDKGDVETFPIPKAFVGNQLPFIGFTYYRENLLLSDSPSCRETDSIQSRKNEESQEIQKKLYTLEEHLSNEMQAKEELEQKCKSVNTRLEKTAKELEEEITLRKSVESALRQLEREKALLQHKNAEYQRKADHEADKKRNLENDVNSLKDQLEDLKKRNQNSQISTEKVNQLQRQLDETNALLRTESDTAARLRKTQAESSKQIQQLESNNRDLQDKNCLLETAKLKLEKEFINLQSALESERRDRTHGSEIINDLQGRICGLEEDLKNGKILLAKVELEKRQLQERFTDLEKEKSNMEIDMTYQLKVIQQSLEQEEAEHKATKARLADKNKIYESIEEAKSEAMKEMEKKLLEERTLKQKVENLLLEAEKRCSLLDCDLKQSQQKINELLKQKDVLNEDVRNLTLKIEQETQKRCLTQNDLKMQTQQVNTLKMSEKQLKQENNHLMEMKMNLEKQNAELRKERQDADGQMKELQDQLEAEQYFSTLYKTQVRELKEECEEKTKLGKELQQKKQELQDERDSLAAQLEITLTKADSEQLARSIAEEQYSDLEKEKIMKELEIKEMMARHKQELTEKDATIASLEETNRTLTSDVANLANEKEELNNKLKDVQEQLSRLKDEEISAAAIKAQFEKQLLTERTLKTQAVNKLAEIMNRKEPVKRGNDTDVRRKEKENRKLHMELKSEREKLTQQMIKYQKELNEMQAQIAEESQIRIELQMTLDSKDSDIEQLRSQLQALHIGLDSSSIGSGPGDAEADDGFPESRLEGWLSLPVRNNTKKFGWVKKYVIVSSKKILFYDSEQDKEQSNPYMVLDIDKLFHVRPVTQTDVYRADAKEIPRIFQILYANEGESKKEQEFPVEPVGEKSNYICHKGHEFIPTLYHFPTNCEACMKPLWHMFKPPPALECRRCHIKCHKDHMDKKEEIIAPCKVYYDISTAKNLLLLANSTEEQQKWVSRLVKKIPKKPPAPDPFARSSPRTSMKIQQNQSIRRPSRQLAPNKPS

Broadly, the pIC50 is the negative decadic logarithm of the IC50, by convention in mol/L. Higher therefore signals a small IC50. In the case of `COC[C@H](NC(=O)c1ccc(-c2cn[nH]c2)c(OC)c1)[C@@H](O)c1ccccc1` [Example 113, N-[(1S,2S)-1-hydroxy-3-methoxy-1-phenylpropan-2-yl]-3-methoxy-4-(1H-pyrazol-4-yl)benzamide], the pIC50 is 6.22 against ROCK1 and 6.48 against ROCK2.

In the case of `COc1cc(C(=O)NC(C)c2c(F)cccc2Cl)ccc1-c1cn[nH]c1` (stereo not drawn) [Example 221, N-[1-(2-chloro-6-fluorophenyl)ethyl]-3-methoxy-4-(1H-pyrazol-4-yl)benzamide], the negative logarithm of the IC50 (pIC50) against ROCK1 is 7.78; at ROCK2, 8.46.

As for `COc1cc(C(=O)NCc2ccc(F)cc2Cl)ccc1-c1cn[nH]c1` [Example 41, N-(2-chloro-4-fluorobenzyl)-3-methoxy-4-(1H-pyrazol-4-yl)benzamide], the negative logarithm of the IC50 (pIC50) at ROCK1 is 8.47; on ROCK2, 8.60.

Turning to `O=C(N[C@H](CO)c1c(F)cccc1F)c1ccc(-c2cn[nH]c2)c(Cl)c1` [Example 200, 3-chloro-N-[(1S)-1-(2,6-difluorophenyl)-2-hydroxyethyl]-4-(1H-pyrazol-4-yl)benzamide], the negative logarithm of the IC50 (pIC50) was 7.37 on ROCK1 and 7.91 at ROCK2.

Turning to `COc1cccc(CNC(=O)c2ccc(-c3cn[nH]c3)cc2OC)c1` [Example 54, 2-methoxy-N-(3-methoxybenzyl)-4-(1H-pyrazol-4-yl)benzamide], the negative-log IC50 (pIC50) against ROCK1 is 7.67; at ROCK2, 8.32.

For the compound `CNc1cc(C(=O)N[C@H](C)c2ccc(F)cc2)ccc1-c1cn[nH]c1` [Example 297, (R)-N-(1-(4-Fluorophenyl)ethyl)-3-(methylamino)-4-(1H-pyrazol-4-yl)benzamide], the negative-log IC50 (pIC50) was 5.75 on ROCK1 and 6.29 on ROCK2.

In the case of `Cc1cc(C(=O)NCc2cccc(C(=O)NC3CC3)c2)ccc1-c1cn[nH]c1` [Example 244, N-{[3-(cyclopropyl-carbamoyl)phenyl]methyl}-3-methyl-4-(1H-pyrazol-4-yl)benzamide], the pIC50 at ROCK1 was 8.37; against ROCK2, 9.07.

As to `COc1cc(C(=O)NCc2c(F)cccc2Cl)ccc1-c1cn[nH]c1` [Example 105, N-[(2-chloro-6-fluorophenyl)methyl]-3-methoxy-4-(1H-pyrazol-4-yl)benzamide], the negative-log IC50 (pIC50) on ROCK1 was 7.93; against ROCK2, 8.44.

For `COc1cc(C(=O)NCc2cc(F)c(F)c(F)c2)ccc1-c1cn[nH]c1` [Example 75, 3-methoxy-4-(1H-pyrazol-4-yl)-N-(3,4,5-trifluorobenzyl) benzamide], the pIC50 against ROCK1 is 7.47; against ROCK2, 8.08.

As to `COc1cc(-c2cn[nH]c2)ccc1C(=O)NCc1c(F)cccc1Cl` [Example 185, N-[(2-chloro-6-fluorophenyl)methyl]-2-methoxy-4-(1H-pyrazol-4-yl)benzamide], the pIC50 is 7.58 against ROCK1 and 8.19 on ROCK2.

Regarding `CCOc1cc(C(=O)N[C@H](CO)c2ccccc2)ccc1-c1cn[nH]c1` [Example 192, 3-ethoxy-N-[(1S)-2-hydroxy-1-phenylethyl]-4-(1H-pyrazol-4-yl)benzamide], the pIC50 against ROCK1 was 7.29; against ROCK2, 7.94.

As for `COc1cc(C(=O)N[C@H](CNC(C)=O)c2ccccc2)ccc1-c1cn[nH]c1` [Example 259, N-[(25)-2-{[3-methoxy-4-(1H-pyrazol-4-yl)phenyl] formamido}-2-phenylethyl] acetamide], the pIC50 was 7.63 against ROCK1 and 8.03 on ROCK2.

On to `COc1cc(C(=O)N[C@H](C)c2ccc3c(c2)CCO3)ccc1-c1cn[nH]c1` [Example 106, N-[(1R)-1-(2,3-dihydro-1-benzofuran-5-yl)ethyl]-3-methoxy-4-(1H-pyrazol-4-yl)benzamide], for which the negative-log IC50 (pIC50) at ROCK1 is 7.30; against ROCK2, 7.57.

As for `COc1cc(C(=O)NCc2ccccc2O)ccc1-c1cn[nH]c1` [Example 31, N-(2-hydroxybenzyl)-3-methoxy-4-(1H-pyrazol-4-yl)benzamide], the negative-log IC50 (pIC50) was 8.04 against ROCK1 and 8.25 against ROCK2.

For `COc1cc(C(=O)NCc2cccc3[nH]ncc23)ccc1-c1cn[nH]c1` [Example 86, N-(1H-indazol-4-ylmethyl)-3-methoxy-4-(1H-pyrazol-4-yl)benzamide], the values for the pIC50 against ROCK1 and on ROCK2 were 7.38 and 8.10, respectively.

Regarding `COC(=O)c1cccc(CNC(=O)c2ccc(-c3cn[nH]c3)c(C)c2)c1` [Example 108, methyl 3-({[3-methyl-4-(1H-pyrazol-4-yl)phenyl] formamido}methyl) benzoate], the pIC50 on ROCK1 was 7.86; against ROCK2, 8.58.

With `C[C@@H](NC(=O)c1cc(F)c(-c2cn[nH]c2)cc1F)c1ccccc1` [Example 186, 2,5-difluoro-N-[(1R)-1-phenylethyl]-4-(1H-pyrazol-4-yl)benzamide], the pIC50 was 6.33 on ROCK1 and 6.72 at ROCK2.

Consider `COc1cc(C(=O)NCC(O)c2cccc(O)c2)ccc1-c1cn[nH]c1` (stereo not drawn) [Example 131, N-[2-hydroxy-2-(3-hydroxyphenyl)ethyl]-3-methoxy-4-(1H-pyrazol-4-yl)benzamide], for which the pIC50 against ROCK1 is 7.38; at ROCK2, 7.90.

As for `O=C(N[C@H](CO)c1c(F)cccc1F)c1ccc(-c2cn[nH]c2)c(OC(F)F)c1` [Example 196, 3-(difluoro-methoxy)-N-[(1S)-1-(2,6-difluorophenyl)-2-hydroxyethyl]-4-(1H-pyrazol-4-yl)benzamide], the pIC50 on ROCK1 was 7.20; against ROCK2, 7.86.

For the compound `COc1cc(C(=O)NCc2cccc(OC(F)(F)F)c2)ccc1-c1cn[nH]c1` [Example 28, 3-methoxy-4-(1H-pyrazol-4-yl)-N-(3-(trifluoro-methoxy)benzyl) benzamide], the negative logarithm of the IC50 (pIC50) on ROCK1 is 5.77; at ROCK2, 7.39.

Consider `COc1cc(-c2cn[nH]c2)ccc1C(=O)NC(c1ccccc1F)C(C)(C)O` (stereo not drawn) [Example 212, N-[1-(2-fluorophenyl)-2-hydroxy-2-methylpropyl]-2-methoxy-4-(1H-pyrazol-4-yl)benzamide], for which the negative logarithm of the IC50 (pIC50) at ROCK1 was 7.43; against ROCK2, 8.14.

For the compound `COc1cc(C(=O)NCc2ccccc2Cl)ccc1-c1c[nH]nc1C` [Example 57, N-(2-Chlorobenzyl)-3-methoxy-4-(3-methyl-1H-pyrazol-4-yl)benzamide], the pIC50 against ROCK1 is 6.83; at ROCK2 it was 7.00.

For `COc1cc(C(=O)NCc2cccc(C(=O)NCC3CC3)c2)ccc1-c1cn[nH]c1` [Example 236, N-({3-[(cyclopropyl-methyl)carbamoyl]phenyl}methyl)-3-methoxy-4-(1H-pyrazol-4-yl)benzamide], the negative logarithm of the IC50 (pIC50) is 8.75 on ROCK1 and 9.43 at ROCK2.

`COc1cc(C(=O)NC(CCO)c2ccccc2)ccc1-c1cn[nH]c1` (stereo not drawn) [Example 146, N-(3-hydroxy-1-phenylpropyl)-3-methoxy-4-(1H-pyrazol-4-yl)benzamide]: the pIC50 against ROCK1 was 8.11; against ROCK2 it was 8.66.

Consider `COc1cccc(CNC(=O)c2ccc(-c3cn[nH]c3)cc2CO)c1` [Example 161, 2-(hydroxymethyl)-N-[(3-methoxyphenyl)methyl]-4-(1H-pyrazol-4-yl)benzamide], for which the negative logarithm of the IC50 (pIC50) at ROCK1 is 6.10; on ROCK2 it was 6.73.

Regarding `COc1cc(C(=O)NCc2ccc(Cl)cc2F)ccc1-c1cn[nH]c1` [Example 99, N-[(4-chloro-2-fluorophenyl)methyl]-3-methoxy-4-(1H-pyrazol-4-yl)benzamide], the negative-log IC50 (pIC50) at ROCK1 is 7.80; on ROCK2, 8.87.

Turning to `COc1cc(C(=O)N[C@@H](Cc2ccccc2)[C@H](O)CO)ccc1-c1cn[nH]c1` [Example 216, N-[(2S,3S)-3,4-dihydroxy-1-phenylbutan-2-yl]-3-methoxy-4-(1H-pyrazol-4-yl)benzamide], the pIC50 at ROCK1 is 7.29; at ROCK2 it was 7.96.

With `Cc1cc(C(=O)N[C@H](C)c2ccc(F)cc2)ccc1-c1cn[nH]c1` [Example 150, N-[(1R)-1-(4-fluorophenyl)ethyl]-3-methyl-4-(1H-pyrazol-4-yl)benzamide], the pIC50 was 7.88 on ROCK1 and 7.72 on ROCK2.

`COc1cc(-c2c[nH]nc2C(F)(F)F)ccc1C(=O)NCc1c(F)cccc1Cl` [Example 189, N-[(2-chloro-6-fluorophenyl)methyl]-2-methoxy-4-[3-(trifluoromethyl)-1H-pyrazol-4-yl]benzamide]: the pIC50 is 7.40 against ROCK1 and 7.37 against ROCK2.

On to `COc1cc(C(=O)NCCc2ccccc2)ccc1-c1cn[nH]c1` [Example 36, 3-methoxy-N-phenethyl-4-(1H-pyrazol-4-yl)benzamide], for which the negative-log IC50 (pIC50) on ROCK1 is 7.55; against ROCK2, 7.98.

Consider `COc1ccc(F)c(C(C)NC(=O)c2ccc(-c3cn[nH]c3)c(OC)c2)c1` (stereo not drawn) [Example 140, N-[1-(2-fluoro-5-methoxyphenyl)ethyl]-3-methoxy-4-(1H-pyrazol-4-yl)benzamide], for which the pIC50 on ROCK1 was 8.47; against ROCK2, 9.08.

For the compound `COc1cc(C(=O)NCc2ccccc2F)ccc1-c1cn[nH]c1` [Example 25, N-(2-fluorobenzyl)-3-methoxy-4-(1H-pyrazol-4-yl)benzamide], the pIC50 on ROCK1 is 8.10; against ROCK2, 8.58.

With `COc1cc(C(=O)NCC(O)c2ccccc2Cl)ccc1-c1cn[nH]c1` (stereo not drawn) [Example 122, N-[2-(2-chlorophenyl)-2-hydroxyethyl]-3-methoxy-4-(1H-pyrazol-4-yl)benzamide], the pIC50 against ROCK1 is 7.45; against ROCK2, 7.63.

With `COc1cc(-c2cn[nH]c2)ccc1C(=O)N[C@H](CCO)c1ccccc1` [Example 209, N-[(1R)-3-hydroxy-1-phenylpropyl]-2-methoxy-4-(1H-pyrazol-4-yl)benzamide], the pIC50 against ROCK1 is 8.18; at ROCK2, 8.56.

Take `COC(=O)CC(NC(=O)c1ccc(-c2cn[nH]c2)c(OC)c1)c1ccccc1` (stereo in doubt) [Example 92, methyl (3R)-3-{[3-methoxy-4-(1H-pyrazol-4-yl)phenyl] formamido}-3-phenyl-propanoate]: the negative-log IC50 (pIC50) on ROCK1 is 7.27; at ROCK2, 7.67.

Take `CCC(O)c1cc(C(=O)N[C@H](C)c2ccccc2)ccc1-c1cn[nH]c1` (stereo partly drawn) [Example 284, 3-(1-hydroxypropyl)-N-[(1R)-1-phenylethyl]-4-(1H-pyrazol-4-yl)benzamide]: the figures for the negative logarithm of the IC50 (pIC50) against ROCK1 and on ROCK2 were 6.07 and 6.74, respectively.
